From US5498624A, “Selected pyrazolyl derivatives” (Monsanto Company, priority 1995, dated 1996)

Assays:
Format in all cases: in vivo
[1] = system: Erysiphe graminis f. sp. hordei; assay: Barley Powdery Mildew Foliar Assay (BPM Prot); conditions: inoculation 24 hours after application
Experimental: A) Pathogen/Inoculum Production--Leaf material infected with the barley powdery mildew fungus, Erysiphe graminis f. sp. hordei, is maintained continuously on barley seedlings, cv. Perry.
(§1) B) Host Propagation--Barley seedlings, cv. Perry, are grown to second leaf stage in a commercial soil preparation, "Metro Mix 200", amended with 100 gm/ft^3 slow release "Osmocote 14-14-14". A sufficient number of seeds are planted per pot (5 cm in diameter) in order to insure the production of 3-5 vigorous seedlings per pot. The plants are maintained in a growth chamber set at 21° C., 80% RH with a 12 hour photoperiod. Light intensity is set at 300 me/m^2/ sec.
(§2) C) Test Compound Preparation
1) Experimental compounds--Each or the compounds of the present invention are applied at 500, 100, and 20 ppm. Formulation is generally in […], 59.95% water, and 0.05% Tween 20. Four pots (with 3-5 plants/pot) at each rate are treated. The application volume is 8 ml per treatment. Formulated materials, such as commercially available products, are brought up to the appropriate treatment volume with water containing Tween®20,05% v/v.
2) Controls and standards--The commercial standards used are Corbel® (active ingredient fenpropimorph) and NUSTAR® (active ingredient flusilazole), both at the rate of 20 and/or 10 ppm. A set of control plants, treated with the formulation blank and inoculated, are also included.
D) Compound Application--Compound is sprayed onto the leaves of the plants (pots positioned on a rotating table) using a DeVilbiss Model 152 hand sprayer. Coverage of the first leaf is essential. After the plants have thoroughly dried they are returned to the growth room and randomized.
E) Inoculation/Incubation--Inoculation of the test plants takes place 24 hours after compound application. Inoculation is accomplished by gently shaking plants previously infected with the Erysiphe graminis f. sp. hordeii fungus over the test plants. This process liberates a cloud of spores which effectively and uniformly fall onto the test plants. After inoculation the plants are returned to the environmental conditions under which they were grown.
F) Evaluation--The test is assessed 6-7 days after inoculation. Treatments are evaluated by visually estimating the percentage of the leaf area infected on the first leaf. Three ratings are made on each pot (replicate). Phytotoxicity and growth effects are also noted at this time.
(§3) G) Data--All replicate data is recorded as a percent disease value. Treatment means are calculated and percent disease control is determined by the formula: (control mean--treatment mean)*100/control mean. The inoculated control treatment mean is used for this calculation. The percent protection values for the compounds of the present invention are as set out in the Table below.

Botrytis cinerea = assay: Vine Grey Mold on Berries (VGM Cur); conditions: grape berries, treated 24 hours after inoculation
Experimental: Vine Grey Mold on Berries (VGM Cur)--Assay is as set out above in EXAMPLE 11 except for step E) which is: Test Execution--In the curative test the berries are first inoculated as described, six per petri plate and placed in incubation. After 24 hours, the berries are temporarily removed from incubation, placed into 12-well tissue culture plates (one per well), treated, and then returned to incubation.

[2] = system: Pseudocercosporella herpotrichoides var. tritici; assay: Wheat True Eyespot Foliar Protectant Treatment (WES Prot)
Experimental: A) Pathogen/Inoculum Production--Follows as per Example 4.
as §1, with “Propagation--Wheat” for “Propagation--Barley”, “Hart,” for “Perry,”, “the third” for “second”, “14-14-1438 .” for “14-14-14".”, “5” for “3-5”, “me/m^2 /sec.” for “me/m^2/ sec.”
as §2
1) Experimental compounds--Follows as per Example 1.
2) Controls and Standards--The commercial fungicide, prochloraz, applied at 20 and 5 ppm, is used as the standard for wheat eyespot control. Control treatments are sprayed only with the formulation solution.
D) Compound Application--Wheat plants are sprayed at the three leaf stage. The solution is foliarly applied to the basal stem area of the wheat using a Devilbiss Model 152 hand sprayer. The treated wheat is allowed to air dry at room temperature before being returned to a growth chamber. The growth chamber is set at 15° C., 85% RH and a 12 hour photoperiod. Light intensity is maintained at 300 me/m^2 /sec.
E) Inoculation/Incubation - The treated wheat plants are inoculated 24 hours after chemical treatment. Inoculation is done by spraying a 3×10^5 spores/ml suspension at the basal stem area of each plant. Approximately 1 ml of spore suspension is applied to each plant. Following inoculation, the basal stem area of the plants are covered with a 2-3 cm thick layer of fine vermiculite. The vermiculite is watered lightly and the plants returned to the growth room. The inoculated plants remain in the growth chamber for 4 weeks after which time they are evaluated for disease control.
F) Evaluation--Treatments are evaluated four weeks after inoculation. Disease assessment is based on the percent girdling of the stem base caused by an eyespot lesion. Five plants are rated per replicate. Phytotoxicity and growth effects are also noted at this time.
as §3

[3] = 20 ppm foliar protectant, * = averaged value
[4] = 100 ppm foliar protectant, * = averaged value
[5] = 500 ppm foliar protectant, four weeks after inoculation

SMILES	BPM Prot percent disease control ([1]; 20 ppm foliar) [%]	BPM Prot percent disease control ([1]; 100 ppm foliar) [%]	VGM Cur percent disease control (Botrytis cinerea; 20 ppm) [%]	VGM Cur percent disease control (Botrytis cinerea; 50 ppm) [%]	WES Prot percent disease control [2, 3] [%]	WES Prot percent disease control [2, 4] [%]	BPM Prot percent disease control ([1]; 500 ppm foliar) [%]	WES Prot percent disease control [2, 5] [%]
C[C@H]1CCC[C@H](c2ccccc2NC(=O)c2cn(C)nc2C(F)F)C1 (relative stereo) [Number 3, 1H-pyrazole-4-carboxamide, 3-(difluoromethyl)-1-methyl-N-[2-(3-methylcyclohexyl)phenyl]-, trans-]	98	98	84	90	01	95		
CC[C@H]1CC[C@@H](c2ccccc2NC(=O)c2cn(C)nc2C(F)F)CC1 [Number 1, 1H-pyrazole-4-carboxamide, 3-(difluoromethyl)-N-[2-(4-ethylcyclohexyl)phenyl]-1-methyl-, cis-]					29	79	88	100
Cn1cc(C(=O)Nc2ccccc2[C@@H]2CCC[C@@H](C(F)(F)F)C2)c(C(F)F)n1 (relative stereo) [Number 6]						90		100
C[C@@H]1CCC[C@H](c2ccccc2NC(=O)c2cn(C)nc2C(F)F)C1 (relative stereo) [Number 2, 1H-pyrazole-4-carboxamide, 3-(difluoromethyl)-1-methyl-N-[2-(-3-methylcyclohexyl)phenyl]-, cis-]	90	96	41	82	12	82	85	
Cn1cc(C(=O)Nc2ccccc2C2CCC(C)(C)CC2)c(C(F)F)n1 [Number 5, 1H-pyrazole-4-carboxamide, 3-(difluoromethyl)-N-(2-(4,4-dimethylcyclohexyl)phenyl]-1-methyl-]					59	99		
Cn1cc(C(=O)Nc2ccccc2[C@H]2CC[C@H](C)CC2)c(C(F)(F)F)n1 [Number 4, 1H-pyrazole-4-carboxamide, 1-methyl-N-[2-(4-methylcyclohexyl)phenyl]-3-(trifluoromethyl)-, trans-]			19	69	54	98		100
